“And” between values parts separate entries of the source, which are not always exact repeats. Identical values can stand only once.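 All cell lines were grown in 96-well plates and treated with compound for 48 hours. The concentration for 50% growth inhibition is given as GI50. The concentration for full growth arrest is given as TGI.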
Experiments:
Assay in all cases: inhibition of tumour cell growth, NCI panel, 48 h
PC-3 prostate = system: PC-3 prostate
HOP-92 NSCLC = system: HOP-92 NSCLC
NCI-H226 lung = system: NCI-H226 lung
SF-295 CNS = system: SF-295 CNS
M14 melanoma = system: M14 melanoma
OVCAR-4 ovarian = system: OVCAR-4 ovarian
CCRF-CEM leukemia = system: CCRF-CEM leukemia
OVCAR-8 ovarian = system: OVCAR-8 ovarian
IGROV1 ovarian = system: IGROV1 ovarian
MDA-MB-435 = system: MDA-MB-435

Compound	GI50 (PC-3 prostate)	TGI (PC-3 prostate)	GI50 (HOP-92 NSCLC)	TGI (HOP-92 NSCLC)	GI50 (NCI-H226 lung)	TGI (NCI-H226 lung)	GI50 (SF-295 CNS)	TGI (SF-295 CNS)	GI50 (M14 melanoma)	TGI (M14 melanoma)	GI50 (OVCAR-4 ovarian)	TGI (OVCAR-4 ovarian)	GI50 (CCRF-CEM leukemia)	TGI (CCRF-CEM leukemia)	GI50 (OVCAR-8 ovarian)	TGI (OVCAR-8 ovarian)	GI50 (IGROV1 ovarian)	TGI (IGROV1 ovarian)	GI50 (MDA-MB-435)	TGI (MDA-MB-435)
CNC(=O)Oc1cc(C)c(/C=C/c2cncc(C(=O)NC)c2)c(C)c1	> 25 µM	> 25 µM	9.13 µM	> 25 µM	> 25 µM	> 25 µM	> 25 µM	> 25 µM	16.8 µM	> 25 µM	> 25 µM	> 25 µM	24.8 µM	> 25 µM	> 25 µM	> 25 µM	> 23.2 µM	> 25 µM	8.44 µM	> 25 µM
c1ccc(CN=C(NCc2ccccc2)NCc2ccccc2)cc1	2.76 µM	12.9 µM	3.18 µM	12.7 µM	6.04 µM	21.4 µM	1.21 µM	6.49 µM	4.18 µM	17.3 µM	6.23 µM	36.8 µM	10.2 µM	62.5 µM	6.44 µM	21.8 µM	1.66 µM	9.51 µM	3.21 µM	15.1 µM
CCOC(=O)/C(=C(/C)NCC(C)C)c1cc(O)c(O)c2c(C)cc(=O)[nH]c12	11.1 µM	> 100 µM	9.51 µM	45 µM	10.6 µM	> 100 µM	4.46 µM	48.1 µM	4.53 µM	> 100 µM	2.62 µM	50 µM	1.4 µM	55.5 µM	4.87 µM	> 100 µM	9.21 µM	> 100 µM	5.93 µM	> 100 µM
COC(=O)[C@H](Cc1ccc(O)cc1)NC(=O)[C@@H](OC)[C@@H]1Cc2cc3cc(OC4CC(OC5CC(O)C(O)C(C)O5)C(O)C(C)O4)c(C)c(O)c3c(O)c2C(=O)[C@H]1OC1CC(OC2CC(OC3CC(C)(O)C(O)C(C)O3)C(O)C(C)O2)C(O)C(C)O1 (some centres undefined)	0.106 µM	> 25 µM	0.0387 µM	7.15 µM	0.0759 µM	0.582 µM	0.132 µM	> 25 µM	0.204 µM	6.43 µM	0.178 µM	> 25 µM	0.111 µM	> 25 µM	0.166 µM	> 25 µM	0.0357 µM	> 25 µM	0.0931 µM	2.33 µM
CN(C)CCOC(c1ccccc1)c1ccccc1		44.4 µM and > 100 µM		85.7 µM	39.7 µM	56.4 µM and > 100 µM			15.3 µM	23.9 µM and > 100 µM		> 100 µM		> 100 µM	14.8 µM	22.7 µM and > 100 µM	29.3 µM	46.3 µM and > 100 µM	24.6 µM	44.1 µM and > 100 µM
CCc1ccc2c(c1)N(CCO)C1=C(C(=O)OC1)C2c1cccc(Cl)c1 (centres undefined)	0.687 µM	23.4 µM	12.7 µM	27.8 µM	1.35 µM	10.5 µM	0.382 µM	15.5 µM	0.584 µM	12.2 µM	0.834 µM	28.8 µM	0.739 µM	32 µM	1.32 µM	26.8 µM	3.75 µM	37.6 µM	0.195 µM	0.787 µM
CCc1cc2c(cc1N1CCC(N3CCOCC3)CC1)C(C)(C)c1[nH]c3cc(C#N)ccc3c1C2=O	0.921 µM and 0.653 µM and 0.738 µM	> 36.1 µM and 14.6 µM and > 10 µM	0.386 µM and 0.179 µM and 0.576 µM	3.54 µM and 1.23 µM and 4.84 µM	1.75 µM and 1.63 µM and 1.61 µM	4.32 µM and 3.97 µM and 5.19 µM	2.56 µM and 2.95 µM and 1.61 µM	9.06 µM and 13.2 µM and 3.68 µM	1.62 µM and 2.05 µM and 2.17 µM	8.88 µM and 11.9 µM and > 10 µM	0.648 µM and 1.35 µM and 1.63 µM	2.26 µM and 2.86 µM and 3.59 µM	0.745 µM and 0.826 µM and 1.54 µM	> 100 µM	0.648 µM and 0.935 µM and 1.3 µM	2.48 µM and 3.11 µM and 3.57 µM	2.48 µM and 1.45 µM and 0.772 µM	16.7 µM and 5.16 µM and 4 µM	1.46 µM and 1.34 µM and 2.1 µM	5.97 µM and 5.53 µM and > 10 µM
CC/C(=C(/c1ccc(O)cc1)c1ccc(OCCN2CCCCC2)cc1)c1ccc(OC)cc1	1.41 µM	3.34 µM	0.665 µM	2.38 µM	16.8 µM	37.9 µM	1.79 µM	3.62 µM	1.73 µM	3.38 µM	1.88 µM	5.99 µM	0.513 µM	5.09 µM	2.45 µM	6.02 µM	2.5 µM	8.95 µM	1.58 µM	3.1 µM
CCN(CC)CCNc1cc(-c2cccc(OC(F)(F)F)c2)nc2ccc(N3CCCC3)cc12	1.37 µM and 1.57 µM and 1.81 µM	2.76 µM and 3.1 µM and 3.81 µM	1.17 µM and 1.34 µM and 1.51 µM	2.84 µM and 3.09 µM and 4.68 µM	2.08 µM and 1.76 µM and 2.79 µM	4.26 µM and 3.45 µM and 8.02 µM	1.63 µM and 1.73 µM and 1.92 µM	3.23 µM and 3.36 µM and 3.79 µM	1.6 µM and 1.82 µM and 1.86 µM	3.12 µM and 3.51 µM and 3.63 µM	2.14 µM and 1.62 µM and 3.11 µM	7.86 µM and 3.67 µM and 12.9 µM	1.57 µM and 2.19 µM and 2.8 µM	4.2 µM and 6.84 µM and 10.4 µM	1.94 µM and 1.76 µM and 1.99 µM	4.04 µM and 3.36 µM and 4.24 µM	1.34 µM and 1.41 µM and 1.46 µM	2.87 µM and 3.04 µM and 3.05 µM	1.47 µM and 1.43 µM and 1.74 µM	2.83 µM and 2.85 µM and 3.3 µM
CC1(C)CCC(C)(C)c2c1ccc(O)c2Cc1c(O)ccc2c1C(C)(C)CCC2(C)C		3.79 µM		3.7 µM		3.88 µM		4.99 µM		3.75 µM		3.53 µM		5.75 µM		4.53 µM		3.68 µM		3.48 µM
COc1cc(-c2nn(-c3cccc(NC(=O)c4ccc(N5CCOCC5)c(C(F)(F)F)c4)c3)cc2-c2ccncc2)ccc1Cl	0.166 µM	5.22 µM	0.128 µM	0.952 µM	1.07 µM	99.2 µM	0.15 µM	1.15 µM	0.346 µM	13.8 µM	1.51 µM	> 100 µM	0.236 µM	> 100 µM	0.468 µM	> 100 µM	0.405 µM	9.81 µM	0.0252 µM	0.0827 µM
S=c1nc(Cl)cc2[nH]c(Cl)cn12		> 100 µM		96.9 µM		> 100 µM		14.4 µM		> 100 µM		44.9 µM		6.04 µM		57.4 µM		30.2 µM		4.74 µM
COc1ccc2c(c1OC)OCC(CN(C)C)C2=O (centres undefined)		34.6 µM		11.3 µM		> 67.4 µM		> 100 µM		31.5 µM		60.5 µM		8.54 µM		50.2 µM		35.4 µM		34.3 µM
